According to patent US20030215817A1, “Modulation of gene expression in formation of fatty atherosclerotic lesions” (priority 2003, published 2003):

Experiments:
Assay type in all cases: in vivo, rabbit
[1] = system: REC1_3 (MspI ACGG 162) mRNA; test: TOGA analysis, REC1_3; conditions: REC1_3, ACGG 162; rabbit aorta; 14 days cholesterol + (R)-enantiomer
Method: (§1) To perform the studies, New Zealand male rabbits weighing 2.0-2.5 kg (Charles River, Calco, Italy) were used. The rabbits were divided into three groups and maintained in identical experimental conditions: (1) control group (n=15); rabbits fed a cholesterol-rich diet; (2) lercanidipine-treated group (n=15); rabbits fed a cholesterol-rich diet and also treated with lercanidipine (3 mg/kg/week); and (3) (R)-lercanidipine-treated group (n=5); rabbits fed a cholesterol-rich diet and also treated with the (R)-enantiomer of lercanidipine (3 mg/kg/week). After a 2 week period of subcutaneous, once a week, pretreatment with 3 mg/kg/week of lercanidipine or (R)-lercanidipine, the rabbits received a daily cholesterol supplement for up to 8 weeks or 2 weeks, respectively. In the following examples, use of the term “lercanidipine” refers to the racemic mixture of lercanidipine hydrochloride, whereas “(R)-lercanidipine” refers to the (R)-enantiomer of lercanidipine hydrochloride.
(§2) The mRNA from the above-described groups was isolated from aorta at different time points, resulting in the following mRNA samples: (1) Day 0 Control=no administered cholesterol, no lercanidipine; (2) Day 0+lercanidipine=no administered cholesterol, treatment with lercanipidine (2 weeks; 3 mg/kg/week); (3) Day 14 Control=cholesterol diet for two weeks, no lercanidipine; (4) Day 14+lercanidipine=cholesterol diet for two weeks, treatment with lercanidipine (four weeks; 3 mg/kg/week); (5) Week 8 Control=cholesterol diet for 8 weeks, no lercanidipine; and (6) Week 8+lercanidipine=cholesterol diet for 8 weeks, treatment with lercanidipine (10 weeks; 3 mg/kg/week). In addition, Day 14+(R)-lercanidipine mRNA samples were prepared from rabbits given a cholesterol diet for two weeks and treated with 3 mg/kg/week (R)-lercanidipine for four weeks.
(§3) Aorta mRNAs were prepared in the following manner. First, the aortas from each experimental group were retrieved and shredded using a polytron homogenizer. The samples were further homogenized using a teflon pestle, after which the cellular debris, nuclei, and blood cells were pelleted by centrifugation. The supernatants were extracted twice with phenol-chloroform-isoamyl alcohol and once with chloroform-isoamyl alcohol. RNA was then precipitated from the aqueous phase with ethanol. The poly A+ mRNA was prepared using standard methods of polyA selection known in the art (Schriber et al., J. Mol. Biol., 142:93-116 (1980)).
(§4) The isolated mRNA was analyzed using a method of simultaneous sequence-specific identification of mRNAs known as TOGA, described in U.S. Pat. No. 5,459,037 and U.S. Pat. No. 5,807,680, hereby incorporated herein by reference. In a preferred embodiment, the TOGA method further comprised an additional PCR step performed using a mixture of four 5′ PCR primers and cDNA templates prepared from a population of antisense cRNAs. A final PCR step that used a mixture of 256 5′ PCR primers produced PCR products that were cDNA fragments that corresponded to the 3′-region of the starting mRNA population. The produced PCR products were then identified by: (a) the initial 5′ sequence comprising the sequence remainder of the recognition site of the restriction endonuclease used to cut and isolate the 3′ region plus the sequence of the preferably four parsing bases immediately 3′ to the remainder of the recognition site, preferably the sequence of the entire fragment; and (b) the length of the fragment. […]

[2] = system: REC1_8 (MspI CCCG 243) mRNA; test: TOGA analysis, REC1_8; conditions: REC1_8 CCCG 243; rabbit aorta, 14 days cholesterol
Method: as §1, §2, §3, §4

[3] = system: REC1_6 (MspI ATCC 176) mRNA, ferritin light chain subunit; test: TOGA analysis, REC1_6; conditions: REC1_6, ATCC 176; rabbit aorta; 14 days cholesterol + (R)-enantiomer
Method: as §1, §2, §3, §4

[4] = system: REC1_13 (MspI GCCC 216) mRNA; test: TOGA analysis, REC1_13; conditions: REC1_13 GCCC 216; rabbit aorta, 14 days cholesterol
Method: as §1, §2, §3, §4

[5] = system: REC1_18 (MspI TGGT 241) mRNA; test: TOGA analysis, REC1_18; conditions: REC1_18 TGGT 241; rabbit aorta, cholesterol 14 days
Method: as §1, §2, §3, §4

[6] = system: REC1_5 (AGTG 184) mRNA; test: TOGA analysis, REC1_5; conditions: REC1_5, AGTG 184; rabbit aorta; 14 days cholesterol + (R)-enantiomer
Method: as §1, §2, §3, §4

[7] = system: REC1_16 (TCGG 195) mRNA; test: TOGA analysis, REC1_16; conditions: REC1_16 TCGG 195; rabbit aorta, 14 days cholesterol, (R)-enantiomer
Method: as §1, §2, §3, §4

[8] = system: REC1_17 (TCGT 199) mRNA; test: TOGA analysis, REC1_17; conditions: REC1_17 TCGT 199; rabbit aorta, 14 days cholesterol, (R)-enantiomer
Method: as §1, §2, §3, §4

[9] = system: REC1_20 (TTAC 210) mRNA, phosphofructo-1-kinase C isozyme; test: TOGA analysis, REC1_20; conditions: REC1_20 TTAC 210; rabbit aorta, cholesterol 14 days
Method: as §1, §2, §3, §4

[10] = system: REC1_12 (GCCC 232) mRNA, alpha smooth muscle actin; test: TOGA analysis, REC1_12; conditions: REC1_12 GCCC 232; rabbit aorta, 14 days cholesterol
Method: as §1, §2, §3, §4

[11] = system: REC1_36 (digital address TTAG 155) mRNA; test: TOGA analysis, REC1_36; conditions: REC1_36 TTAG 155; rabbit aorta, cholesterol 14 days
Method: as §1, §2, §3
The isolated mRNA was analyzed using a method of simultaneous sequence-specific identification of mRNAs known as TOGA, described in U.S. Pat. No. 5,459,037 and U.S. Pat. No. 5,807,680, hereby incorporated herein by reference. In a preferred embodiment, the TOGA method further comprised an additional PCR step performed using a mixture of four 5′ PCR primers and cDNA templates prepared from a population of antisense cRNAs. A final PCR step that used a mixture of 256 5′ PCR primers produced PCR products that were cDNA fragments that corresponded to the 3′-region of the starting mRNA population. The produced PCR products were then identified by: (a) the initial 5′ sequence comprising the sequence remainder of the recognition site of the restriction endonuclease used to cut and isolate the 3′ region plus the sequence of the preferably four parsing bases immediately 3′ to the remainder of the recognition site, preferably the sequence of the entire fragment; and (b) the length of the fragment. These two parameters, sequence and fragment length, were used to compare the obtained PCR products to a database of known polynucleotide sequences. Since the length of the obtained PCR products includes known vector sequences at the 5′ and 3′ ends of the insert, the sequence of the insert provided in the sequence listing is shorter than the fragment length that forms part of the digital address.
The method yields Digital Sequence Tags (DSTs), that is, polynucleotides that are expressed sequence tags of the 3′ end of mRNAs. […]

COC(=O)C1=C(C)NC(C)=C(C(=O)OC(C)(C)CN(C)CCC(c2ccccc2)c2ccccc2)[C@@H]1c1cccc([N+](=O)[O-])c1 [Lercanidipine (R)]
level of gene expression (TOGA), 14 Day hypercholesterol + Lercanidipine (R) [1]: 197
level of gene expression, 14 Day hypercholesterol + Lercanidipine (R) [2]: 539
level of gene expression (TOGA), 14 Day hypercholesterol + Lercanidipine (R) [3]: 365
level of gene expression, 14 Day hypercholesterol + Lercanidipine (R) [4]: 404
level of gene expression, 14 Day hypercholesterol + Lercanidipine (R) [5]: 330
level of gene expression (TOGA), 14 Day hypercholesterol + Lercanidipine (R) [6]: 643
level of gene expression (TOGA), 14 Day hypercholesterol + Lercanidipine (R) [7]: 1554
level of gene expression (TOGA), 14 Day hypercholesterol + Lercanidipine (R) [8]: 1117
level of gene expression, 14 Day hypercholesterol + Lercanidipine (R) [9]: 669
level of gene expression, 14 Day hypercholesterol + Lercanidipine (R) [10]: 3993
level of gene expression, 14 Day hypercholesterol + Lercanidipine (R) [11]: 500
